21 compounds from US10227357B2, “Compounds and methods for kinase modulation, and indications therefor” (Plexxikon Inc., priority 2012, dated 2019) can be followed below.

For one assay, the target named is T1, c-kit mutant D816V (Homo sapiens, UniProt P10721, D816V/DEL694-753).
T1 construct: residues 551-934, kinase insertion domain residues 694-753 deleted; 6x-histidine (N); made in house; host or cells: E. coli Arctic Express (DE3) RIL (Stratagene)
Kind of assay: c-Kit mutant D816V biochemical assay, AlphaScreen. The note with it: c-kit D816V biochemical inhibitory activity; read-out: Biochemical activity (IC50 μM) Kit D816V. In short, it runs like this:
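Purified His-tagged c-Kit D816V (E. coli-expressed) assayed in 25 mM HEPES pH 7.2 with Mg/Mn, 5% DMSO and 10 μM ATP, 30 min at room temperature, 8-point 1:3 dilutions. Phosphorylation detected by AlphaScreen with streptavidin donor and PY20 acceptor beads; IC50 from signal versus concentration.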
Background: Alpha assays give light when donor and acceptor beads are brought close together.

The next assay has as its target T2, c-kit kinase (Homo sapiens, UniProt P10721).
T2 construct: The c-kit (or kinase domain thereof) is an active kinase in AlphaScreen; poly-Histidine tag (in-house protein only) (cleaved yes); host or cells: E. coli BL21(DE3)RIL, co-expressed with PTP1B
Kind of assay: c-Kit biochemical assay, AlphaScreen, 10 μM ATP. The note with it: c-kit biochemical inhibitory activity; read-out: Biochemical activity (IC50 μM) Kit. The method, then:
IC50 values are determined with respect to inhibition of c-Kit kinase activity, where inhibition of phosphorylation of a peptide substrate is measured as a function of compound concentration. Compounds to be tested were dissolved in DMSO to a concentration of 20 mM. These were diluted 30 μl into 120 μl of DMSO (4 mM) and 1 μl was added to an assay plate. These were then serially diluted 1:3 (50 μl to 100 μl DMSO) for a total of 8 points. Plates were prepared such that each kinase reaction is 20 μl in 1× kinase buffer (50 mM HEPES, pH 7.2, 5 mM MgCl2, 5 mM MnCl2, 0.01% NP-40, 0.2% BSA), 5% DMSO and 10 μM ATP. […] C-kit kinase was at 0.1 ng per sample. After incubation of the kinase reaction for 1 hour at room temperature, 5 μl of donor beads (Streptavidin coated beads (Perkin Elmer Life Science) final concentration 1 μg/ml) in stop buffer (50 mM EDTA in 1× kinase buffer) was added, the sample was mixed and incubated for 20 minutes at room temperature before adding 5 μl of acceptor beads (PY20 coated beads (Perkin Elmer Life Science) final concentration 1 μg/ml) in stop buffer. The samples were incubated for 60 minutes at room temperature and the signal per well was read on AlphaQuest reader. […] The signal vs. compound concentration was used to determine the IC50.
Complementary DNA cloned from various human tissues were purchased from Invitrogen, and these were used as substrates in the PCR reactions. Specific custom synthetic oligonucleotide primers were designed to initiate the PCR product, and also to provide the appropriate restriction enzyme cleavage sites for ligation with the plasmids. The entire sequence encoding the enzyme was made through a gene synthesis procedure, using custom synthetic oligonucleotides covering the entire coding sequence (Invitrogen, see below).
The plasmid used for ligation with the kinase-encoding inserts was derivative of pET (Novagen) for expression using E. coli. The Kit kinase was engineered to include a Histidine tag for purification using metal affinity chromatography. The kinase-encoding plasmid was engineered as bicistronic mRNA to co-express a second protein that modifies the kinase protein during its expression in the host cell. Protein tyrosine phosphatase 1B (PTP), was co-expressed for dephosphorylation of the phospho-Tyrosines.
For protein expression, the plasmid containing the Kit gene was transformed into E. coli strains BL21(DE3)RIL and transformants selected for growth on LB agar plates containing appropriate antibiotics. Single colonies were grown overnight at 37° C. in 200 ml TB (Terrific broth) media. 16×1 L of fresh TB media in 2.8 L flasks were inoculated with 10 ml of overnight culture and grown with constant shaking at 37° C. Once cultures reached an absorbance of 1.0 at 600 nm, IPTG was added and cultures were allowed to grow for a further 12 to 18 hrs at temperatures ranging from 12-30° C. Cells were harvested by centrifugation and pellets frozen at […] until ready for lysis.
For protein Purification; frozen E. coli cell pellets were resuspended in lysis buffer and lysed using standard mechanical methods. Protein was purified via poly-Histidine tags using immobilized metal affinity purification IMAC. The Kit kinase was purified using a 3 step purification process utilizing; IMAC, size exclusion chromatography and ion exchange chromatography. The poly-Histidine tag was removed using Thrombin (Calbiochem).

Each structure is given as a SMILES string.

T2 sequence (P10721 26-976): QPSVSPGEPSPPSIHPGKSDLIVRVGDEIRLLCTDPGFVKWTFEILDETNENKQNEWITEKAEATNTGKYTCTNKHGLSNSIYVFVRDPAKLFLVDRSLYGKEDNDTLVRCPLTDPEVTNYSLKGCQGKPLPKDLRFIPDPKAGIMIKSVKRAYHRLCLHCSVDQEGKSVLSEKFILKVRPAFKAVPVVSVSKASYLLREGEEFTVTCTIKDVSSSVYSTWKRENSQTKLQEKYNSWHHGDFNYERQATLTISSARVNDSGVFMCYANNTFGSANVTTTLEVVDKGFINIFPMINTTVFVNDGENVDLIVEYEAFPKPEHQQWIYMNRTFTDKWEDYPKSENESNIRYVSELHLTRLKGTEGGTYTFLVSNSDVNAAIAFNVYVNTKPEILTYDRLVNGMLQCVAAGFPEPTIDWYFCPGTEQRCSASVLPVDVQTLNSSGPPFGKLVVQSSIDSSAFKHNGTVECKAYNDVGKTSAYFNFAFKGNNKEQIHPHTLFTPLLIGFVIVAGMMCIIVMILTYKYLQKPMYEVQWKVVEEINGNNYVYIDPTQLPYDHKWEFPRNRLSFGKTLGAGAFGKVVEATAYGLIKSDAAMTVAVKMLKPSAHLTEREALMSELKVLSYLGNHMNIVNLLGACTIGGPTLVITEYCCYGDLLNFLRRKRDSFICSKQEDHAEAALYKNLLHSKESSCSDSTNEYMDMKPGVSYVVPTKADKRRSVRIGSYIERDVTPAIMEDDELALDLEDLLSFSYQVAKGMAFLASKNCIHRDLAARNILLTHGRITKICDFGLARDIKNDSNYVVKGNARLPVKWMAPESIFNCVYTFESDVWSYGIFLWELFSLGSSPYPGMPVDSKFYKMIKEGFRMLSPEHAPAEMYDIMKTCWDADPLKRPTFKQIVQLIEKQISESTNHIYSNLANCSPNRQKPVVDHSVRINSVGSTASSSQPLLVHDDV
T1 sequence (P10721 with tags, fused parts or gaps DEL694-753/D816V): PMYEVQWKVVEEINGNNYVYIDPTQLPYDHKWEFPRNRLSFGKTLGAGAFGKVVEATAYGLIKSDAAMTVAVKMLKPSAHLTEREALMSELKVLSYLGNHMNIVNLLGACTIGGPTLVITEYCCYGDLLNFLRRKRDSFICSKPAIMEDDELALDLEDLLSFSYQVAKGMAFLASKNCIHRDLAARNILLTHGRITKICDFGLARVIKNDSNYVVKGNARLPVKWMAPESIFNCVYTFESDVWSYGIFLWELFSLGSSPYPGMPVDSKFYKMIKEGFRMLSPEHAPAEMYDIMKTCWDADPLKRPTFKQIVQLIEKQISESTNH

The IC50 is the concentration at which inhibition is half-maximal. `Cc1ccc(-c2cc3c(N4CCN(C(=O)N[C@@H](C)c5cccc(Cl)c5)C(C)(C)C4)ncnc3[nH]2)cn1` [P-0001, N-[(1S)-1-(3-chlorophenyl)ethyl]-2,2-dimethyl-4-[6-(6-methyl-3-pyridyl)-7H-pyrrolo[2,3-d]pyrimidin-4-yl]piperazine-1-carboxamide]: the IC50 on c-kit mutant D816V lay within 0.0001 to 1 µM; on c-kit kinase, 1 to 10 µM. As for `Cc1ccc(-c2cc3c(N4CCN(C(=O)N[C@@H](C)c5cccc(OC(F)F)c5)C(C)(C)C4)ncnc3[nH]2)cn1` [P-0002, N-[(1S)-1-[3-(difluoromethoxy)phenyl]ethyl]-2,2-dimethyl-4-[6-(6-methyl-3-pyridyl)-7H-pyrrolo[2,3-d]pyrimidin-4-yl]piperazine-1-carboxamide], the IC50 on c-kit mutant D816V fell in the range of 0.0001 to 1 µM; on c-kit kinase it was 1 to 10 µM.

For the compound `COc1cccc([C@H](C)NC(=O)N2CCN(c3ncnc4[nH]c(C)cc34)CC2)c1` [P-0003, N-[(1S)-1-(3-methoxyphenyl)ethyl]-4-(6-methyl-7H-pyrrolo[2,3-d]pyrimidin-4-yl)piperazine-1-carboxamide], the IC50 at c-kit mutant D816V lay within 0.0001 to 1 µM; on c-kit kinase, 10 to 200 µM.

Consider `COc1cc([C@H](C)NC(=O)N2CCN(c3ncnc4[nH]c(-c5ccc(F)cc5)cc34)C[C@H]2C)ccc1F` [P-0004, (2R)-N-[(1S)-1-(4-fluoro-3-methoxy-phenyl)ethyl]-4-[6-(4-fluorophenyl)-7H-pyrrolo[2,3-d]pyrimidin-4-yl]-2-methyl-piperazine-1-carboxamide], for which the figures for the IC50 on c-kit mutant D816V and at c-kit kinase were 0.0001 to 1 µM and 10 to 200 µM, respectively.

In the case of `C[C@H](NC(=O)N1CCN(c2ncnc3[nH]c(-c4ccc(F)cc4)cc23)CC1(C)C)c1cccc(F)c1` [P-0005, N-[(1S)-1-(3-fluorophenyl)ethyl]-4-[6-(4-fluorophenyl)-7H-pyrrolo[2,3-d]pyrimidin-4-yl]-2,2-dimethyl-piperazine-1-carboxamide], the IC50 was in the range of 0.0001 to 1 µM at c-kit mutant D816V and 1 to 10 µM on c-kit kinase. In the case of `C[C@H](NC(=O)N1CCN(c2ncnc3[nH]c(-c4ccc(F)cc4)cc23)CC1(C)C)c1cccc(OC(F)F)c1` [P-0006, N-[(1S)-1-[3-(difluoromethoxy)phenyl]ethyl]-4-[6-(4-fluorophenyl)-7H-pyrrolo[2,3-d]pyrimidin-4-yl]-2,2-dimethyl-piperazine-1-carboxamide], the values for the IC50 at c-kit mutant D816V and on c-kit kinase were 0.0001 to 1 µM and 1 to 10 µM, respectively. Take `Cc1ccc(-c2cc3c(N4CCN(C(=O)N[C@@H](C)c5cccc(F)c5)C(C)(C)C4)ncnc3[nH]2)cn1` [P-0007, N-[(1S)-1-(3-fluorophenyl)ethyl]-2,2-dimethyl-4-[6-(6-methyl-3-pyridyl)-7H-pyrrolo[2,3-d]pyrimidin-4-yl]piperazine-1-carboxamide]: the values for the IC50 at c-kit mutant D816V and on c-kit kinase were 0.0001 to 1 µM and 10 to 200 µM, respectively. Take `C[C@H](NC(=O)N1CCN(c2ncnc3[nH]c(-c4ccc(F)cc4)cc23)CC1(C)C)c1cccc(Cl)c1` [P-0008, N-[(1S)-1-(3-chlorophenyl)ethyl]-4-[6-(4-fluorophenyl)-7H-pyrrolo[2,3-d]pyrimidin-4-yl]-2,2-dimethyl-piperazine-1-carboxamide]: the 50% inhibitory concentration (IC50) on c-kit mutant D816V fell in the range of 0.0001 to 1 µM; on c-kit kinase, 1 to 10 µM. For the compound `COc1cccc([C@H](C)NC(=O)N2CCN(c3ncnc4[nH]c(-c5ccnc(OC)c5)cc34)CC2(C)C)c1` [P-0009, N-[(1S)-1-(3-methoxyphenyl)ethyl]-4-[6-(2-methoxy-4-pyridyl)-7H-pyrrolo[2,3-d]pyrimidin-4-yl]-2,2-dimethyl-piperazine-1-carboxamide], the IC50 was in the range of 0.0001 to 1 µM at c-kit mutant D816V and 1 to 10 µM at c-kit kinase. Regarding `Cn1cc(-c2cc3c(N4CCN(c5nc6ccccc6[nH]5)CC4)ncnc3[nH]2)cn1` [P-0010, 4-[4-(1H-benzimidazol-2-yl)piperazin-1-yl]-6-(1-methylpyrazol-4-yl)-7H-pyrrolo[2,3-d]pyrimidine], the half-maximal inhibitory concentration (IC50) on c-kit mutant D816V and on c-kit kinase was 0.0001 to 1 µM in each case. For `Fc1ccc(-c2cc3c(N4CCN(c5nc6ccccc6[nH]5)CC4)ncnc3[nH]2)cc1` [P-0011, 4-[4-(1H-benzimidazol-2-yl)piperazin-1-yl]-6-(4-fluorophenyl)-7H-pyrrolo[2,3-d]pyrimidine], the results for the IC50 on c-kit mutant D816V and on c-kit kinase were 0.0001 to 1 µM and 10 to 200 µM, respectively.

For `Cn1cc(-c2cc3c(C4=CCC(NS(=O)(=O)c5ccc(OC(F)(F)F)cc5)CC4)ncnc3[nH]2)cn1` (centres unmarked) [P-0545, N-[4-[6-(1-methylpyrazol-4-yl)-7H-pyrrolo[2,3-d]pyrimidin-4-yl]cyclohex-3-en-1-yl]-4-(trifluoromethoxy)benzenesulfonamide], the IC50 at c-kit kinase is 1 to 10 µM. Consider `COc1cccc([C@H](C)NC(=O)N2CCN(c3ncnc4cc(N5CCOCC5)sc34)CC2)c1` [P-0548, N-[(1S)-1-(3-methoxyphenyl)ethyl]-4-(6-morpholinothieno[3,2-d]pyrimidin-4-yl)piperazine-1-carboxamide], for which the IC50 at c-kit kinase is 1 to 10 µM. As for `C[C@H](NC(=O)N1CC2CCC1CN2c1ncnc2cc(-c3ccc(F)cc3)sc12)c1cccc(Cl)c1` (stereo partly drawn) [P-0565, N-[(1S)-1-(3-chlorophenyl)ethyl]-5-[6-(4-fluorophenyl)thieno[3,2-d]pyrimidin-4-yl]-2,5-diazabicyclo[2.2.2]octane-2-carboxamide], the IC50 at c-kit kinase lay in the range of 1 to 10 µM.

In the case of `Cc1ccc(S(=O)(=O)Nc2ccc(-c3cc4ncnc(N5CCN(C(=O)Nc6ccccc6)CC5)c4s3)cc2)cc1` [P-0625, N-phenyl-4-[6-[4-(p-tolylsulfonylamino)phenyl]thieno[3,2-d]pyrimidin-4-yl]piperazine-1-carboxamide], the IC50 on c-kit kinase lay within 10 to 200 µM. Turning to `Cn1cc(-c2cc3ncnc(N4CCN(C(=O)Nc5ccccc5)CC4)c3s2)cn1` [P-0627, 4-[6-(1-methylpyrazol-4-yl)thieno[3,2-d]pyrimidin-4-yl]-N-phenyl-piperazine-1-carboxamide], the IC50 at c-kit kinase was 1 to 10 µM.

Regarding `Cc1ccc(S(=O)(=O)Nc2ccc(-c3ncnc4cc(-c5cnn(C)c5)sc34)cc2)cc1` [P-0628, 4-methyl-N-[4-[6-(1-methylpyrazol-4-yl)thieno[3,2-d]pyrimidin-4-yl]phenyl]benzenesulfonamide], the IC50 at c-kit kinase was in the range of 0.0001 to 1 µM. The same measure, in the same setting: the value for `CC(C)(C)c1cc2ncnc(N3CCN(C(=O)NCc4ccc(F)cc4)CC3)c2s1` [P-0637, 4-(6-tert-butylthieno[3,2-d]pyrimidin-4-yl)-N-[(4-fluorophenyl)methyl]piperazine-1-carboxamide] was 10 to 200 µM; that for `CC(C)(C)c1cc2ncnc(N3CCN(C(=O)Nc4ccc(F)cc4)CC3)c2s1` [P-0639, 4-(6-tert-butylthieno[3,2-d]pyrimidin-4-yl)-N-(4-fluorophenyl)piperazine-1-carboxamide] was 10 to 200 µM. For the compound `O=S(=O)(NC1CCN(c2ncnc3[nH]c(-c4cc(Cl)cs4)cc23)CC1)c1ccc(OC(F)(F)F)cc1` [P-0670, N-[1-[6-(4-chloro-2-thienyl)-7H-pyrrolo[2,3-d]pyrimidin-4-yl]-4-piperidyl]-4-(trifluoromethoxy)benzenesulfonamide], at c-kit kinase, the IC50 lay in the range of 10 to 200 µM. The same measure, in the same setting: the value for `C[C@H](NC(=O)N1CCN(c2ncnc3ccsc23)CC1(C)C)c1cccc(Cl)c1` [P-0682, N-[(1S)-1-(3-chlorophenyl)ethyl]-2,2-dimethyl-4-thieno[3,2-d]pyrimidin-4-yl-piperazine-1-carboxamide] was 10 to 200 µM.
